The subject of data set [1] is patients with hypertension. To be noted: cited from earlier work; for effect on the quality of sleep: patients with hypertension (Stoschitzky 2006).
Data set [2] relates to nocturnal aMT6s secretion. The note with it: healthy volunteers (Stoschitzky 2006); cited from earlier work.
Data set [3] relates to non-hypertensive stressed individuals with transient insomnia. Kind of data set: Sleep quality in non-hypertensive stressed individuals with transient insomnia. In kind it is in vivo, human. To be noted: 1.25 mg 2 hours before bedtime; 6 individuals (5 males, 1 female). Here is the method: 6 non-hypertensive stressed individuals with transient insomnia (5 males and 1 female) were treated with 1.25 mg Hypoloc (Nebivolol) 2 hours before bedtime.

Structures are written as SMILES. Read-outs that look alike come from different tables or passages of the source.

As for `CC(C)NCC(O)COc1ccc(COCCOC(C)C)cc1` (centres unmarked) [Bisoprolol], the “effect on the quality of sleep” value in data set [1] is on record as “no negative effect”.
Take `C[C@H](CS)C(=O)N1CCC[C@H]1C(=O)O` [Captopril]: the quality of sleep entry in data set [1] (patients with hypertension (Testa 1993)) is “improve the quality of sleep”.
Turning to `COc1ccccc1OCCNCC(O)COc1cccc2[nH]c3ccccc3c12` (centres unmarked) [Carvedilol], the “effects on the nocturnal aMT6s urinary secretion” value in data set [2] is “little if any effects”. Moreover, the “effect on the quality of sleep” value in data set [1] is on record as “no negative effect”.
`OC(CNCC(O)C1CCc2cc(F)ccc2O1)C1CCc2cc(F)ccc2O1` (centres unmarked) [Nebivolol]: in data set [2], the “effects on the nocturnal aMT6s urinary secretion” value is reported as “little if any effects”. The quality of sleep result in data set [1] (patients with hypertension (Erdem 2007)) is given as “can improve the quality of sleep”. In addition, the “effect on the quality of sleep” value in data set [1] is “no negative effect”. Also, the “sleep quality as reported by individuals” value in data set [3] was “significant improvement in sleep quality”.

Values taken from patent US20110015261A1, “USE OF A COMPOSITION COMPRISING AT LEAST ONE BETA-BLOCKER FOR THE TREATMENT OF SLEEP DISORDERS” (Zleepax Europe ApS, priority 2007, published 2011).
